Values quoted from earlier work as cited in patent US20190224170A1, “THERAPIES AND METHODS TO TREAT INFLAMMATORY GASTROINTESTINAL DISEASES AND DISORDERS” (The Regents of the University of California, priority 2018, published 2019).

System: multiple sclerosis
Conditions: supplementation with high doses of biotin

**Q.** For `O=C(O)CCCC[C@@H]1SC[C@@H]2NC(=O)N[C@@H]21` [biotin], which clinical response is on record?
**A.** The clinical response was “distinctive positive clinical response”.
